Legend:
[1] = tested on: CHEAL (common lambsquarters); test: Pre-emergence herbicidal activity, warm season; type: in vivo, Chenopodium album; settings: GR80 = lowest tested rate (300, 100, 30, 10 g/ha) with 80% or greater inhibition; approx. 14 days after treating; 30/21° C.
In short: (§1)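 Seeds sown in sterilised fertilised topsoil received surface-applied compound in 50:50 acetone/water, typically at 300, 100, 30 and 10 g/ha, then greenhouse-grown at 30/21° C (warm-season species) or 18/13° C (cool-season species). Percent inhibition versus untreated plants was scored at about 14 days, giving GR80; an asterisk marks activity short of 80% at the top rate.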

SORVU (shattercane) [2] = test: Pre-emergence herbicidal activity, warm season; type: in vivo, Sorghum vulgare; settings: GR80 = lowest tested rate (300, 100, 30, 10 g/ha) with 80% or greater inhibition; approx. 14 days after treating; 30/21° C.
In short: as §1

ABUTH (velvetleaf) = test: Pre-plant incorporated (PPI) herbicidal activity, warm season; type: in vivo, Abutilon theophrasti; settings: for Percent inhibition ABUTH: PPI application; for PPI activity (GR80) ABUTH: pre-plant incorporated, GR80 = lowest tested rate with 80% or greater inhibition, approx. 14 days after treating, 30/21° C.
In short: (§2)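 PPI simulation: compound in organic solvent sprayed onto weighed cover soil, mixed thoroughly, spread over seeds. Controls: untreated cover soil. 0.64 cm overhead irrigation, then mist/subirrigation. Day/night 30/21° C (warm) or 18/13° C (cool). Read-out ~14 d, % inhibition vs untreated.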

DATST (jimsonweed) = test: as above; type: in vivo, Datura stramonium; settings: for Percent inhibition DATST: PPI application; for PPI activity (GR80) DATST: pre-plant incorporated, GR80 = lowest tested rate with 80% or greater inhibition, approx. 14 days after treating, 30/21° C.
In short: as §2

SORVU (shattercane) [3] = test: as above; type: in vivo, Sorghum vulgare; settings: for Percent inhibition SORVU: PPI application; for PPI activity GR80, SORVU: pre-plant incorporated, lowest tested rate with 80% or greater inhibition, about 14 days
In short: as §2

DIGSA (large crabgrass) = test: as above; type: in vivo, Digitaria sanguinalis; settings: for Percent inhibition DIGSA: PPI application; for PPI activity GR80, DIGSA: pre-plant incorporated, lowest tested rate with 80% or greater inhibition, about 14 days
In short: as §2

STEME (common chickweed) = test: Pre-plant incorporated (PPI) herbicidal activity, cool season; type: in vivo, Stellaria media; settings: for PPI activity GR80, STEME: pre-plant incorporated, lowest tested rate with 80% or greater inhibition, about 14 days; for Percent inhibition STEME: weed, PPI application
In short: as §2

[4] = tested on: AEGCY (jointed goatgrass); test: as above; type: in vivo, Aegilops cylindrica; settings: for PPI activity GR80, AEGCY: pre-plant incorporated, lowest tested rate with 80% or greater inhibition, about 14 days; for Percent inhibition AEGCY: weed, PPI application
In short: as §2

POAAN (annual bluegrass) = test: as above; type: in vivo, Poa annua; settings: weed, PPI application
In short: as §2

oilseed rape (BRSNS) = test: Selectivity test, PPI, cool season crop; type: in vivo, Brassica napus; settings: PPI application
In short: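 Pre-plant incorporated: compound in organic solvent sprayed onto cover soil, mixed and laid over seeds; untreated soil for controls. Greenhouse after treatment: warm season 30/21° C., cool season 18/13° C. day/night. Percent inhibition versus untreated plants scored about 14 days after planting.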

Structure (SMILES): C=C(CC(F)(F)S(=O)(=O)c1ncn(C(=O)N(CC)CC)n1)C[Si](C)(C)C [Example 20]
- Pre-emergence activity (GR80) CHEAL [1]: 300 g/ha
- Pre-emergence activity (GR80) SORVU (SORVU (shattercane) [2]): 300 g/ha
- Percent inhibition ABUTH (ABUTH (velvetleaf); 10 g/ha): 0%
- Percent inhibition ABUTH (ABUTH (velvetleaf); 30 g/ha): 0%
- Percent inhibition ABUTH (ABUTH (velvetleaf); 100 g/ha): 0%
- Percent inhibition ABUTH (ABUTH (velvetleaf); 300 g/ha): 30%
- Percent inhibition ABUTH (ABUTH (velvetleaf); 900 g/ha): 80%
- PPI activity (GR80) ABUTH (ABUTH (velvetleaf)): 300 g/ha
- Percent inhibition DATST (DATST (jimsonweed); 10 g/ha): 0%
- Percent inhibition DATST (DATST (jimsonweed); 30 g/ha): 0%
- Percent inhibition DATST (DATST (jimsonweed); 100 g/ha): 0%
- Percent inhibition DATST (DATST (jimsonweed); 300 g/ha): 20%
- Percent inhibition DATST (DATST (jimsonweed); 900 g/ha): 60%
- PPI activity (GR80) DATST (DATST (jimsonweed)): 300 g/ha
- Percent inhibition SORVU (SORVU (shattercane) [3]; 10 g/ha): 0%
- Percent inhibition SORVU (SORVU (shattercane) [3]; 30 g/ha): 0%
- Percent inhibition SORVU (SORVU (shattercane) [3]; 100 g/ha): 30%
- Percent inhibition SORVU (SORVU (shattercane) [3]; 300 g/ha): 40%
- Percent inhibition SORVU (SORVU (shattercane) [3]; 900 g/ha): 100%
- PPI activity GR80, SORVU (SORVU (shattercane) [3]): * (activity observed, at least at highest rate, but <80% inhibition)
- Percent inhibition DIGSA (DIGSA (large crabgrass); 10 g/ha): 0%
- Percent inhibition DIGSA (DIGSA (large crabgrass); 30 g/ha): 80%
- Percent inhibition DIGSA (DIGSA (large crabgrass); 100 g/ha): 90%
- Percent inhibition DIGSA (DIGSA (large crabgrass); 300 g/ha): 100%
- Percent inhibition DIGSA (DIGSA (large crabgrass); 900 g/ha): 99%
- PPI activity GR80, DIGSA (DIGSA (large crabgrass)): 100 g/ha
- PPI activity GR80, STEME (STEME (common chickweed)): * (activity observed, at least at highest rate, but <80% inhibition)
- PPI activity GR80, AEGCY [4]: * (activity observed, at least at highest rate, but <80% inhibition)
- Percent inhibition AEGCY ([4]; 10 g/ha): 0%
- Percent inhibition AEGCY ([4]; 30 g/ha): 0%
- Percent inhibition AEGCY ([4]; 100 g/ha): 0%
- Percent inhibition AEGCY ([4]; 300 g/ha): 0%
- Percent inhibition AEGCY ([4]; 900 g/ha): 0%
- Percent inhibition POAAN (POAAN (annual bluegrass); 10 g/ha): 0%
- Percent inhibition POAAN (POAAN (annual bluegrass); 30 g/ha): 30%
- Percent inhibition POAAN (POAAN (annual bluegrass); 100 g/ha): 60%
- Percent inhibition POAAN (POAAN (annual bluegrass); 300 g/ha): 90%
- Percent inhibition POAAN (POAAN (annual bluegrass); 900 g/ha): 99%
- Percent inhibition BRSNS (oilseed rape (BRSNS); 10 g/ha): 0%
- Percent inhibition BRSNS (oilseed rape (BRSNS); 30 g/ha): 20%
- Percent inhibition BRSNS (oilseed rape (BRSNS); 100 g/ha): 20%
- Percent inhibition BRSNS (oilseed rape (BRSNS); 300 g/ha): 60%
- Percent inhibition BRSNS (oilseed rape (BRSNS); 900 g/ha): 95%

Structure (SMILES): CCN(CC)C(=O)n1cnc(S(=O)(=O)C(F)(F)SCCOC)n1 [Example 13]
- Pre-emergence activity (GR80) CHEAL [1]: 300 g/ha
- Pre-emergence activity (GR80) SORVU (SORVU (shattercane) [2]): * (activity observed, at least at highest rate, but <80% inhibition)
- Percent inhibition ABUTH (ABUTH (velvetleaf); 10 g/ha): 0%
- Percent inhibition ABUTH (ABUTH (velvetleaf); 30 g/ha): 0%
- Percent inhibition ABUTH (ABUTH (velvetleaf); 100 g/ha): 0%
- Percent inhibition ABUTH (ABUTH (velvetleaf); 300 g/ha): 20%
- Percent inhibition ABUTH (ABUTH (velvetleaf); 900 g/ha): 85%
- PPI activity (GR80) ABUTH (ABUTH (velvetleaf)): 100 g/ha
- Percent inhibition DATST (DATST (jimsonweed); 10 g/ha): 0%
- Percent inhibition DATST (DATST (jimsonweed); 30 g/ha): 30%
- Percent inhibition DATST (DATST (jimsonweed); 100 g/ha): 50%
- Percent inhibition DATST (DATST (jimsonweed); 300 g/ha): 90%
- Percent inhibition DATST (DATST (jimsonweed); 900 g/ha): 100%
- PPI activity (GR80) DATST (DATST (jimsonweed)): 300 g/ha
- Percent inhibition SORVU (SORVU (shattercane) [3]; 10 g/ha): 0%
- Percent inhibition SORVU (SORVU (shattercane) [3]; 30 g/ha): 50%
- Percent inhibition SORVU (SORVU (shattercane) [3]; 100 g/ha): 90%
- Percent inhibition SORVU (SORVU (shattercane) [3]; 300 g/ha): 100%
- Percent inhibition SORVU (SORVU (shattercane) [3]; 900 g/ha): 100%
- PPI activity GR80, SORVU (SORVU (shattercane) [3]): 300 g/ha
- Percent inhibition DIGSA (DIGSA (large crabgrass); 10 g/ha): 0%
- Percent inhibition DIGSA (DIGSA (large crabgrass); 30 g/ha): 75%
- Percent inhibition DIGSA (DIGSA (large crabgrass); 100 g/ha): 100%
- Percent inhibition DIGSA (DIGSA (large crabgrass); 300 g/ha): 100%
- Percent inhibition DIGSA (DIGSA (large crabgrass); 900 g/ha): 100%
- PPI activity GR80, DIGSA (DIGSA (large crabgrass)): 30 g/ha
- PPI activity GR80, STEME (STEME (common chickweed)): * (activity observed, at least at highest rate, but <80% inhibition)
- Percent inhibition STEME (STEME (common chickweed); 10 g/ha): 0%
- Percent inhibition STEME (STEME (common chickweed); 30 g/ha): 0%
- Percent inhibition STEME (STEME (common chickweed); 100 g/ha): 20%
- Percent inhibition STEME (STEME (common chickweed); 300 g/ha): 100%
- Percent inhibition STEME (STEME (common chickweed); 900 g/ha): 99%
- PPI activity GR80, AEGCY [4]: [empty]
- Percent inhibition AEGCY ([4]; 10 g/ha): 0%
- Percent inhibition AEGCY ([4]; 30 g/ha): 0%
- Percent inhibition AEGCY ([4]; 100 g/ha): 0%
- Percent inhibition AEGCY ([4]; 300 g/ha): 60%
- Percent inhibition AEGCY ([4]; 900 g/ha): 40%
- Percent inhibition POAAN (POAAN (annual bluegrass); 10 g/ha): 0%
- Percent inhibition POAAN (POAAN (annual bluegrass); 30 g/ha): 50%
- Percent inhibition POAAN (POAAN (annual bluegrass); 100 g/ha): 90%
- Percent inhibition POAAN (POAAN (annual bluegrass); 300 g/ha): 100%
- Percent inhibition POAAN (POAAN (annual bluegrass); 900 g/ha): 95%
- Percent inhibition BRSNS (oilseed rape (BRSNS); 10 g/ha): 0%
- Percent inhibition BRSNS (oilseed rape (BRSNS); 30 g/ha): 0%
- Percent inhibition BRSNS (oilseed rape (BRSNS); 100 g/ha): 0%
- Percent inhibition BRSNS (oilseed rape (BRSNS); 300 g/ha): 70%
- Percent inhibition BRSNS (oilseed rape (BRSNS); 900 g/ha): 30%
